Consider 19 compounds from PubChem BioAssay (NCI).

Several values for one entry are separate records, joined by “and”; a condition that tells them apart may be missing. Identical values can stand only once.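 Test compounds were applied to cells in 96-well plates for 48 hours at 5 doses. Abbreviation: GI50, concentration required for 50% inhibition of growth. At the TGI there is no net growth.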

Assay in all cases: NCI anticancer screen, dose series, 48 h
For test [1], the system named is OVCAR-3 ovarian.
Test [2] deals with MOLT-4 leukemia.
Test [3] relates to RXF 393 renal.
Test [4] concerns 786-0 renal.
Test [5] relates to ACHN renal.
Test [6] deals with TK-10 renal.
The subject of test [7] is UO-31 renal.
Test [8] deals with CAKI-1 renal.
The test system of test [9] is SF-295 CNS.
Test [10] deals with IGROV1 ovarian.

Regarding `CN1CCN(C(=O)c2ccc(NC(=O)Nc3ccc(N(C)c4ccnc(Nc5ccc(CS(C)(=O)=O)cc5)n4)cc3)cc2)CC1`, the GI50 was 7.44 µM in [1]; 9.25 µM in test [2]; 24.2 µM in [3]; above 25 µM in test [4]; above 25 µM in [5]; above 25 µM in test [6]. For the same compound, the GI50 is above 25 µM in test [7], above 25 µM in test [8], above 22.5 µM in test [9] and above 16.4 µM in [10]. The TGI in test [1] is above 19.4 µM; in test [2], above 25 µM; in test [3], above 25 µM; in test [4] it was above 25 µM; in [5], above 25 µM; in test [6] it was above 25 µM. Moreover, the TGI in test [7], in test [8], in test [9] and in test [10] was above 25 µM throughout.

`Cc1cc(Cl)ccc1Nc1sc(C(=O)c2cc3cc(Cl)ccc3o2)c(N)c1C#N`: the TGI in test [1] was above 55.3 µM; in test [2], above 100 µM; in test [3], above 100 µM; in [4] it was 28.6 µM; in [5], 98.1 µM; in test [6], above 73.1 µM. Besides, the TGI in [7], in test [8], in test [9] and in [10] was above 100 µM in each case.

Regarding `Cc1nc(NC(=S)NC(=O)c2ccc(Cl)c(Cl)c2)sc1C(=O)/C=C/c1ccccc1[N+](=O)[O-]`, the TGI stood at 51.7 µM in test [1]; 52.6 µM in [2]; 41 µM in [3]; 33.5 µM in test [4]; 67.4 µM in test [5]; 71.3 µM in test [6]. For the same compound, the TGI was determined as 45.6 µM in [7], 47.3 µM in test [8], 58.9 µM in test [9] and 66.7 µM in test [10].

With `O=C(O)C1C2C=CC(O2)C1C(=O)Nc1ccccc1` (stereo not drawn), the TGI in test [1], in [2], in test [3], in test [4], in test [5] and in [6] was above 100 µM each time. Moreover, the TGI in test [7], in test [8], in [9] and in test [10] was above 100 µM each time.

Regarding `COc1cc2c(c(OC)c1OC)-c1ccc(OC)c(=O)cc1[C@@H](NC(=O)CCl)CC2`, the GI50 is below 0.01 µM in test [1]; below 0.01 µM in [2]; below 0.01 µM in test [3]; below 0.01 µM in test [4]; 0.0295 µM in [5]; 0.0647 µM in test [6]. The GI50 in test [7] was 0.0673 µM; in test [8] it was 0.0386 µM; in test [9], below 0.01 µM; in test [10], below 0.01 µM. The TGI in [1] was below 0.01 µM; in test [2], above 100 µM; in test [3] it was 19.5 µM; in test [4], 1.7 µM; in test [5], above 54.1 µM; in test [6] it was 14.2 µM. Moreover, the TGI in test [7] was 45.3 µM; in [8], 21.2 µM; in test [9], 0.0743 µM; in [10], 21.9 µM.

As for `O=C(O)C(=O)Cc1ccc2c(c1)OCO2`, the TGI in test [1], in test [2], in test [3], in test [4], in test [5] and in [6] was above 100 µM in each case. Moreover, the TGI in test [7], in test [8], in test [9] and in test [10] was above 100 µM throughout.

In the case of `CN1C(=O)n2c(nc3ccccc32)C(N=[N+]=[N-])(N=[N+]=[N-])C1=O` (stereo not drawn), the TGI in [1], in test [2], in test [3], in test [4], in [5] and in test [6] was above 100 µM throughout. The TGI in test [7], in test [8], in test [9] and in [10] was above 100 µM each time.

Turning to `C=C(C)C(=O)NC(N)=NC#N`, the GI50 in test [1] is 129 µM; in [2], 21.5 µM and 46.7 µM; in [3], 63 µM; in test [4], 30 µM; in test [5] it was 68 µM; in [6], 33 µM. The GI50 was 134 µM in test [7], 179 µM in test [9] and 168 µM in test [10]. Moreover, the TGI in test [1] was 259 µM; in test [2], 52.2 µM and 255 µM; in test [3], 65.7 µM and 200 µM; in test [4], 140 µM; in test [5], 271 µM; in test [6] it was 98.6 µM and 126 µM. Besides, the TGI is > 92.1 µM and 265 µM in test [7]; 44.7 µM and 82.9 µM in test [8]; 330 µM in test [9]; > 75.1 µM and 309 µM in [10].

Regarding `CCCCCCCCCCCCCOC(=O)c1c(C)[nH]c(/C=C2\N=C(c3ccc[nH]3)C=C2OC)c1C`, the GI50 is 0.227 µM in test [1]; 0.0807 µM in test [2]; 0.465 µM in test [3]; 0.161 µM in test [4]; 0.139 µM in test [5]; 0.174 µM in test [6]. Also, the GI50 was 0.103 µM in [7], 0.0336 µM in [8], 1.75 µM in test [9] and 0.122 µM in test [10]. In addition, the TGI was 15.5 µM in test [1]; above 100 µM in [2]; 10.5 µM in test [3]; 12.7 µM in [4]; 12.5 µM in test [5]; 20 µM in test [6]. Besides, the TGI came to 0.443 µM in test [7], 37.7 µM in [9] and 30.1 µM in test [10].

Turning to `COc1cc2c(c(OC)c1OC)-c1ccc([O-])c(=O)cc1[C@@H](NC(C)=O)CC2.COc1cc2c(c(OC)c1OC)-c1ccc([O-])c(=O)cc1[C@@H](NC(C)=O)CC2.[Cu+2]`, the GI50 in [1] was 2.16 µM; in test [2] it was 3.42 µM; in [3] it was 3.87 µM; in [4], 7.9 µM; in test [5] it was 7.83 µM; in test [6], 9.55 µM. The GI50 in test [7] was 4.1 µM; in test [8], 4.96 µM; in test [9] it was 3.1 µM; in [10], 5.59 µM. In addition, the TGI in test [1] is 5.19 µM; in [2] it was 21.1 µM; in test [3], above 100 µM; in test [4], above 100 µM; in test [5], above 100 µM; in [6] it was above 100 µM. Also, the TGI in test [7] is 41.9 µM; in test [8], 63.1 µM; in test [9], above 100 µM; in [10], 47.1 µM.

Consider `COc1cc(C(=O)C/C(CCC(=O)Nc2ccccc2[N+](=O)[O-])=N\NC(=O)C(N)=O)ccc1O`, for which the TGI in test [1], in test [2], in test [3], in test [4], in test [5] and in [6] was above 100 µM each time. The TGI in [7], in test [8], in test [9] and in [10] was above 100 µM each time.

Take `COc1ccc(-c2coc3ncnc(N)c23)cc1`: the GI50 in test [1], in [2], in test [3], in test [4], in test [5] and in test [6] was above 25 µM in each case. Besides, the GI50 in test [7], in test [8], in test [9] and in test [10] was above 25 µM throughout. In addition, the TGI in test [1], in [2], in test [3], in [4], in test [5] and in [6] was above 25 µM throughout. Also, the TGI in test [7], in test [8], in test [9] and in [10] was above 25 µM throughout.

As to `N=c1ccn2c(n1)OC1C(OP(=O)(O)O)C(CO)OC12` (stereo not drawn), the TGI is above 100 µM in [1]; above 63.3 µM in test [2]; above 100 µM in test [3]; above 100 µM in [4]; 14 µM in test [5]; above 100 µM in test [6]. In addition, the TGI in test [7], in test [8], in test [9] and in test [10] was above 100 µM each time.

Take `CCC[CH2][Sn]1([CH2]CCC)[O]C(c2ccccn2)S(=O)(=O)[O]1` (stereo not drawn): the GI50 in test [1] was 3.06 µM; in test [2] it was 2.84 µM; in test [3] it was 2.36 µM; in test [4], 2.12 µM; in [5] it was 7.88 µM; in test [6] it was 2.54 µM. Also, the GI50 in test [7] was 13.6 µM; in test [8], 1.58 µM; in test [9], 2.94 µM; in [10], 6.47 µM. For the same compound, the TGI is 11.6 µM in [1]; 7.51 µM in test [2]; 3.95 µM in [3]; 4.11 µM in test [4]; 20 µM in test [5]; 5.84 µM in [6]. The TGI in test [7] came out at 26.6 µM; in test [8] it was 3.63 µM; in [9] it was 8.26 µM; in test [10], 20.3 µM.

As for `Cc1cc(N(CCOS(C)(=O)=O)CCOS(C)(=O)=O)ccc1C=Nc1ccc(-c2csc(-c3ccccc3)n2)c(Cl)c1`, the TGI in test [1] turned out to be 40.9 µM; in test [2], 38.7 µM; in test [3] it was 7.65 µM; in test [4], 17.7 µM; in test [5] it was 22.2 µM; in test [6], 46.1 µM. Also, the TGI was 29.7 µM in test [7], 1.32 µM in test [8], 29.8 µM in test [9] and 32.2 µM in test [10].

Turning to `CC1(C)CC23C(=O)N(c4ccccc4)C(=Nc4ccccc4)NC2=CC(C#N)=C(C#N)C3O1` (stereo not drawn), the TGI in test [1], in [2], in test [3], in test [4], in test [5] and in test [6] was above 100 µM in each case. Further, the TGI in test [7], in test [8], in [9] and in test [10] was above 100 µM in each case.

Regarding `CC1=CC2=C(OCO1)C(=O)c1ccccc1C2=O`, the TGI in test [1] was 13.3 µM; in test [2] it was 25.3 µM; in test [3], 12.5 µM; in test [4], above 56.9 µM; in test [5], 18.6 µM; in test [6], above 81.3 µM. Moreover, the TGI was 28.7 µM in test [7], above 94 µM in test [8], 8.61 µM in test [9] and 27.6 µM in [10].

Take `COC1=CC(=O)c2ccc(C(C)C)cc2C1(C)C1=NC(C)(C)CO1` (stereo not drawn): the TGI in test [1], in test [2], in test [3], in test [4], in [5] and in test [6] was above 100 µM throughout. Further, the TGI in test [7], in [8], in [9] and in test [10] was above 100 µM in each case.

For `CCCCCCN(CCCCCC)C(=N)c1ccnc2ccccc12`, the GI50 in test [1] was 10.3 µM; in test [2] it was 3.11 µM; in test [3] it was 4.57 µM; in test [4] it was 2.82 µM; in [5] it was 4.23 µM; in [6], 2.15 µM. For the same compound, the GI50 in test [7] was 0.708 µM; in test [8], 3.18 µM; in [9], 1.39 µM; in [10] it was 2.83 µM. Further, the TGI in test [1] was found to be 22.4 µM; in [2] it was 17.2 µM; in test [3] it was 15.5 µM; in [4] it was 12.5 µM; in test [5], 16.3 µM; in [6], 9.67 µM. Also, the TGI in [7] stood at 13 µM; in test [8], 15 µM; in [9], 13.4 µM; in [10] it was 13.4 µM.
